# Reference: patent US9926297B2, “Bicyclic AZA compounds as muscarinic M1 receptor and/or M4 receptor agonists” (Heptares Therapeutics Limited, priority 2014, dated 2018)
# What was measured:
# [1] = target: T1, human muscarinic M1 receptor (Homo sapiens, UniProt P11229); assay: Alphascreen Surefire phospho-ERK1/2 functional assay, M1; assay type: cell-based; conditions: for EC50: phospho-ERK1/2, * = variable results, read-out: pEC50 M1 (converted); for Emax: CHO, read-out: % Emax cf. ACh, M1, CHO cells stably expressing human M1
# T1 sequence (P11229 1-460): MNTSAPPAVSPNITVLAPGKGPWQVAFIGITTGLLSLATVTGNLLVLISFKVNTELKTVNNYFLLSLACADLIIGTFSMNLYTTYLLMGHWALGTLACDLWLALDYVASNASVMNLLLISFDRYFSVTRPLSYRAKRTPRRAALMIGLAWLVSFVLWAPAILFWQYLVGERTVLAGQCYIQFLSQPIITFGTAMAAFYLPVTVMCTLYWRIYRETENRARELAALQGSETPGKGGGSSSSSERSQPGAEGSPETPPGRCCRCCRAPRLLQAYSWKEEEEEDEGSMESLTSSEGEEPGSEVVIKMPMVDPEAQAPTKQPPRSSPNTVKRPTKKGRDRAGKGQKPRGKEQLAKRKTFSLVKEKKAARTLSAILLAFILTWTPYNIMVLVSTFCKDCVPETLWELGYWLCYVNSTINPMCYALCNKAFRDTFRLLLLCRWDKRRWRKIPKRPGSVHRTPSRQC
# [2] = target: T2, human muscarinic M4 receptor (Homo sapiens, UniProt P08173); assay: Alphascreen Surefire phospho-ERK1/2 functional assay, M4; assay type: cell-based; conditions: for EC50: phospho-ERK1/2, * = variable results, read-out: pEC50 M4 (converted); for Emax: CHO, read-out: % Emax cf. ACh, M4, CHO cells stably expressing human M4
# T2 construct: expressed in transfected cells
# T2 sequence (P08173 1-479): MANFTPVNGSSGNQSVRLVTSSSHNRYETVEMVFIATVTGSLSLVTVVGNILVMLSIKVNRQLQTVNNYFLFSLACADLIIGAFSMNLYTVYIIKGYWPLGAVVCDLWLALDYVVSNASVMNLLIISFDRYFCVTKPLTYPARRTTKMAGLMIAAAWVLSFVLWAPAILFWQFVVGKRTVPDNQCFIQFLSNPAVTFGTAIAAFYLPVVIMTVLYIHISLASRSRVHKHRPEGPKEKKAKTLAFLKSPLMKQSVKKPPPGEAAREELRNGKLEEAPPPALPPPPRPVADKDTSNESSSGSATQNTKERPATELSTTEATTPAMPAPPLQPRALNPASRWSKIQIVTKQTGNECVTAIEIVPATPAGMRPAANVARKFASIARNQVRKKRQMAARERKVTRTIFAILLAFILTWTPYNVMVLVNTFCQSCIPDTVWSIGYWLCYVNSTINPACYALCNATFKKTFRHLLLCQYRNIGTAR
# [3] = target: T3, human muscarinic M2 receptor (Homo sapiens, UniProt P08172); assay: Alphascreen Surefire phospho-ERK1/2 functional assay, M2; conditions: for Emax: CHO, read-out: % Emax cf. ACh, M2, CHO cells stably expressing human M2
# T3 sequence (P08172 1-466): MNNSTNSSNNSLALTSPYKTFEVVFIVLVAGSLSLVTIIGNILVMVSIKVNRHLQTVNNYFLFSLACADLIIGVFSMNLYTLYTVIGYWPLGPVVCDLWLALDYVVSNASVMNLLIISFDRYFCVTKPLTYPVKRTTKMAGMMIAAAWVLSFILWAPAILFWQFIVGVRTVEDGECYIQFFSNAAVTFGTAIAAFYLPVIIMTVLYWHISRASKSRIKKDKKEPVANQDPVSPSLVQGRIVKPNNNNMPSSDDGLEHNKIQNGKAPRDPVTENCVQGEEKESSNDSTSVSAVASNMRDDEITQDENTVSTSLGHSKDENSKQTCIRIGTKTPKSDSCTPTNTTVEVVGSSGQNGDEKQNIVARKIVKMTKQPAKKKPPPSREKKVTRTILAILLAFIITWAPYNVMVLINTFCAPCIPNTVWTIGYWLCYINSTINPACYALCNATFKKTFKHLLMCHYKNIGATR
# [4] = target: human muscarinic M3 receptor (Homo sapiens, UniProt P20309); assay: Alphascreen Surefire phospho-ERK1/2 functional assay, M3; conditions: for Emax: CHO, read-out: % Emax cf. ACh, M3, CHO cells stably expressing human M3; for Emax / % Emax cf. ACh, M3: relative to ACh; for EC50: pEC50 M3, CHO cells stably expressing human M3, phospho-ERK1/2, * = variable results; for % Emax cf. ACh, M3: CHO cells stably expressing human M3
# [5] = CHO cells stably expressing human M1
# [6] = CHO cells stably expressing human M4
# Sequence of human muscarinic M3 receptor (P20309 whole entry): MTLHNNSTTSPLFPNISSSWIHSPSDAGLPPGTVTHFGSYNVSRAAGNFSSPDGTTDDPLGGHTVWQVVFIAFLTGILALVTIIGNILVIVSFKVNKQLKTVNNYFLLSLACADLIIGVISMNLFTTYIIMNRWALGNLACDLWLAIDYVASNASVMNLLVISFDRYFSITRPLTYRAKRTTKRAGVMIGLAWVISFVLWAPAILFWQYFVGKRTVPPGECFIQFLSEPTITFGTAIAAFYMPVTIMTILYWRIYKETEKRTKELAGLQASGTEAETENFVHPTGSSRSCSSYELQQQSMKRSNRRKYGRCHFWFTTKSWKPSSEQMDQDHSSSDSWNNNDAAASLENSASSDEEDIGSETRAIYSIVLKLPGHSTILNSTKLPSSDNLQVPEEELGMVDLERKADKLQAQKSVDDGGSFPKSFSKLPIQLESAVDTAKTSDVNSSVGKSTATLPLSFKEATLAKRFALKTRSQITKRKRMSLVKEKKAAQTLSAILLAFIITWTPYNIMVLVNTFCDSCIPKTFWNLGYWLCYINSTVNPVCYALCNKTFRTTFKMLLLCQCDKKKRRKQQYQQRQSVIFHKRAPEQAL
Compound,"EC50 [1, 5] [nM]",Emax ([1]; relative to ACh) [%],"EC50 [2, 6] [nM]",Emax ([2]; relative to ACh) [%],EC50 [3] [nM],Emax ([3]; relative to ACh) [%],Emax [4] [%],EC50 [4] [nM],"% Emax cf. ACh, M1 ([1]; CHO cells stably expressing human M1, relative to ACh) [%]","% Emax cf. ACh, M4 ([2]; CHO cells stably expressing human M4, relative to ACh) [%]","pEC50 M2 ([3]; CHO cells stably expressing human M2, phospho-ERK1/2, * = variable results)","% Emax cf. ACh, M2 ([3]; CHO cells stably expressing human M2, relative to ACh) [%]","% Emax cf. ACh, M3 [4] [%]"
"CCOC(=O)N1CCC2(CC(N3CCC(c4ncco4)CC3)C2)C1 (single isomer, unassigned) [1-23 Isomer 2, ethyl 2-[4-(1,3-oxazol-2-yl)piperidin-1-yl]-6-azaspiro[3.4]octane-6-carboxylate]",398,55,31.6,105,> 20000,7,9,> 20000,,,,,
"CCOC(=O)N1CCC2(CC(N3CCC([C@@H]4CCCN4C(=O)NCCOC)CC3)C2)C1 (single isomer, unassigned) [2-31 Isomer 2]",126,93,3.16,108,> 20000,7,7,> 20000,,,,,
"CCOC(=O)N1CCC2(CC(N3CCC(N4CC(F)(F)C[C@@H]4C(=O)OC)CC3)C2)C1 (single isomer, unassigned) [2-87 Isomer 2]",398,46,15.8,100,> 20000,54,3,> 20000,,,,,
"CCOC(=O)N1CCC2(CC(N3CCC([C@@H]4CCCN4C(=O)OCc4ccccn4)CC3)C2)C1 (single isomer, unassigned) [2-64 Isomer 2]",> 20000,12,3.16,41,> 20000,6,8,> 20000,,,,,
"CCOC(=O)N1CCC2(CC(N3CCC([C@@H]4CCCN4C(=O)N4CCOCC4)CC3)C2)C1 (single isomer, unassigned) [2-28 Isomer 2]",> 20000,7,25.1,63,> 20000,3,5,> 20000,,,,,
"COC(=O)N1CCC2(CC(N3CCC(c4c(C)cnn4C)CC3)C2)C1 (single isomer, unassigned) [1-57 Isomer 2, methyl 2-[4-(1,4-dimethyl-1H-pyrazol-5-yl)piperidin-1-yl]-6-azaspiro[3.4]octane-6-carboxylate]",2000,63,126,69,> 20000,7,7,> 20000,,,,,
"CCOC(=O)N1CCC2(CC(N3CCC(N4CC(F)(F)C[C@@H]4C(=O)N(C)C)CC3)C2)C1 (single isomer, unassigned) [2-89 Isomer 2]",6310,37,200,102,> 20000,68,8,> 20000,,,,,
"CCOC(=O)N1CCC2(CC(N3CCC([C@@H]4CCCN4C(=O)OC4CCC4)CC3)C2)C1 (single isomer, unassigned) [2-43 Isomer 2]",3160,19,50.1,47,> 20000,4,5,> 20000,,,,,
"CCOC(=O)N1CCC2(CC(N3CCC([C@@H]4CCCN4C(=O)NC4CC(F)(F)C4)CC3)C2)C1 (single isomer, unassigned) [2-38 Isomer 2]",158,110,5.01,115,> 20000,1,2,> 20000,,,,,
"CCOC(=O)N1CCC2(CC(N3CCC(c4nc(C)cn4C)CC3)C2)C1 (single isomer, unassigned) [1-12 Isomer 2, ethyl 2-[4-(1,4-dimethyl-1H-imidazol-2-yl)piperidin-1-yl]-6-azaspiro[3.4]octane-6-carboxylate]",1000,85,126,128,> 20000,11,15,> 20000,,,,,
"CCOC(=O)N1CCC2(CC(N3CCC([C@H]4CCCN4C(=O)NC)CC3)C2)C1 (single isomer, unassigned) [2-18 Isomer 2]",> 20000,8,79.4,56,> 20000,1,4,> 20000,,,,,
"COc1ncccc1C1CCN(C2CC3(CCN(C(=O)OCCF)C3)C2)CC1 (single isomer, unassigned) [3-5 Isomer 2, 2-fluoroethyl 2-[4-(2-methoxypyridin-3-yl)piperidin-1-yl]-6-azaspiro[3.4]octane-6-carboxylate]",> 20000,20,15.8,80,> 20000,65,11,> 20000,,,,,
"CCOC(=O)N1CCC2(CC(N3CCC([C@@H]4CCCN4C(=O)NC4COC4)CC3)C2)C1 (single isomer, unassigned) [2-56 Isomer 2]",631,96,5.01,134,> 20000,8,0,> 20000,,,,,
"CCOC(=O)N1CCC2(CC(N3CCC(N4CC(F)(F)C[C@@H]4C(C)O)CC3)C2)C1 (single isomer, unassigned) [2-109 Isomer 4]",316,,20,,,,,> 20000,42,82,< 4.7,15,9
"CCOC(=O)N1CCC2(CC(N3CCC(c4ccnc(N)n4)CC3)C2)C1 (single isomer, unassigned) [3-8 Isomer 2, ethyl 2-[4-(2-aminopyrimidin-4-yl)piperidin-1-yl]-6-azaspiro[3.4]octane-6-carboxylate]",> 20000,19,25.1,54,> 20000,2,0,> 20000,,,,,
"CCOC(=O)N1CCC2(CC(N3CCC([C@@H]4CCCN4c4ccncc4)CC3)C2)C1 (single isomer, unassigned) [2-80 Isomer 2]",126,98,20,107,> 20000,16,18,> 20000,,,,,
"CCOC(=O)N1CCC2(CC(N3CCC([C@@H]4CCCN4C(=O)CCN)CC3)C2)C1 (single isomer, unassigned) [2-66 Isomer 2]",39.8,96,1.26,115,> 20000,18,8,> 20000,,,,,
"CCOC(=O)N1CCC2(CC(N3CCC(C4c5ccccc5CN4C(=O)NC)CC3)C2)C1 (single isomer, unassigned) [2-76 Isomer 1, ethyl 2-(4-(2-(methylcarbamoyl)-isoindolin-1-yl)piperidin-1-yl)-6-azaspiro[3.4]octane-6-carboxylate]",126,82,39.8,114,> 20000,10,,> 20000,,,,,35
